# Experimental data published in patent publication US20220313629A1, “TRANSIENT POTENTIAL MELASTATIN 8 (TRPM8) ANTAGONISTS AND RELATED METHODS” (MARSHALL UNIVERSITY RESEARCH CORPORATION, priority 2019, published 2022).
# Where two headings read alike, the source gives them in different places.
# Assays:
# Type in all cases: cell-based
# TRPM8 = TRPM8 (Homo sapiens, UniProt Q7Z2W7); test: TRPM8 antagonist activity by Fura-2 Ca2+ imaging in HEK-293 cells stably expressing human TRPM8; conditions: for IC50: read-out: Functional Activity hTRPM8 potency IC50 ± SEM
# human TRPV1 = human TRPV1 (Homo sapiens, UniProt Q8NER1); test: TRPV1 agonist and antagonist Ca2+ flux assay (FLIPR, Fluo-8) in HEK293 cells stably expressing human TRPV1
# human TRPA1 = human TRPA1 (Homo sapiens, UniProt O75762); test: TRPA1 agonist and antagonist Ca2+ flux assay (FLIPR, Fluo-8) in HEK293 cells stably expressing human TRPA1
# [1] = inhibition of icilin (500 nM)-evoked Ca2+ entry, HEK-293 cells stably expressing hTRPM8, mean ± SEM, three independent experiments
# [2] = HEK293; read-out: hTRPV1 % Inhibition (n = 3)
# [3] = tested at 100 nM; normalized to Emax of capsaicin (3 μM)
# [4] = tested at 1 μM; normalized to Emax of capsaicin (3 μM)
# [5] = HEK293; read-out: hTRPA1 % Inhibition (n = 3)
# [6] = tested at 100 nM; normalized to Emax of AITC (300 μM)
# [7] = tested at 1 μM; normalized to Emax of AITC (300 μM)
# [8] = HEK293, read-out: hTRPV1 % Inhibition (n = 3)
# [9] = HEK293, read-out: hTRPA1 % Inhibition (n = 3)
# [10] = at concentrations 13- to 25-fold higher than hTRPM8 IC50
# Sequence of TRPM8 (Q7Z2W7 whole entry): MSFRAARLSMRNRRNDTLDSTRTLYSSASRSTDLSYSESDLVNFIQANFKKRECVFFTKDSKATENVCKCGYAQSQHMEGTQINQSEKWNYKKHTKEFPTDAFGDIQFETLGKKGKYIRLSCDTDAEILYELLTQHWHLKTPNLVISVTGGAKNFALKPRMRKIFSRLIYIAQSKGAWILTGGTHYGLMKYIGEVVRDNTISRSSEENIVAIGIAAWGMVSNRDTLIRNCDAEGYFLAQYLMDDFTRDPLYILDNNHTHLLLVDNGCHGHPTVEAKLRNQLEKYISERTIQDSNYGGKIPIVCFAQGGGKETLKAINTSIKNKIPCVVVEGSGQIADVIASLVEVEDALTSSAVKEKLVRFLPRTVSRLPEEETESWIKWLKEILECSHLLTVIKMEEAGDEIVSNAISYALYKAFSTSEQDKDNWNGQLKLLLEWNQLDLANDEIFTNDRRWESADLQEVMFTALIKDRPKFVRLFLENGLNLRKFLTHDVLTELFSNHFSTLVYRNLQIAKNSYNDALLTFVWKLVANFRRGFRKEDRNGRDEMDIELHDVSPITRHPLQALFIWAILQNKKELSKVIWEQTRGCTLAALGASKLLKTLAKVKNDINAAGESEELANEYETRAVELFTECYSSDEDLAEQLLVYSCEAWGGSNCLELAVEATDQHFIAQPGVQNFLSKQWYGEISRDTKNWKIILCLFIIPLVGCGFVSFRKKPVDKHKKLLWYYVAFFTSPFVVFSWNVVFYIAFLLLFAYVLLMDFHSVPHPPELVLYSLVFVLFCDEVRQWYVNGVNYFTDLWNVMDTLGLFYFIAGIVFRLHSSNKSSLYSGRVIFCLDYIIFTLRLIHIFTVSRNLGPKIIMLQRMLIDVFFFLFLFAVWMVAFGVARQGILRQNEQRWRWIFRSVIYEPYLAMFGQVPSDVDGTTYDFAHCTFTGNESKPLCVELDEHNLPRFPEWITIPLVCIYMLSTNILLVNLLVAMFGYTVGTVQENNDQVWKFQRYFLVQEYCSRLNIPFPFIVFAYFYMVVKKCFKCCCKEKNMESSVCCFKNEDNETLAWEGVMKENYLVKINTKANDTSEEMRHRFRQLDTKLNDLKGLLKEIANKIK
# Sequence of human TRPA1 (O75762 whole entry): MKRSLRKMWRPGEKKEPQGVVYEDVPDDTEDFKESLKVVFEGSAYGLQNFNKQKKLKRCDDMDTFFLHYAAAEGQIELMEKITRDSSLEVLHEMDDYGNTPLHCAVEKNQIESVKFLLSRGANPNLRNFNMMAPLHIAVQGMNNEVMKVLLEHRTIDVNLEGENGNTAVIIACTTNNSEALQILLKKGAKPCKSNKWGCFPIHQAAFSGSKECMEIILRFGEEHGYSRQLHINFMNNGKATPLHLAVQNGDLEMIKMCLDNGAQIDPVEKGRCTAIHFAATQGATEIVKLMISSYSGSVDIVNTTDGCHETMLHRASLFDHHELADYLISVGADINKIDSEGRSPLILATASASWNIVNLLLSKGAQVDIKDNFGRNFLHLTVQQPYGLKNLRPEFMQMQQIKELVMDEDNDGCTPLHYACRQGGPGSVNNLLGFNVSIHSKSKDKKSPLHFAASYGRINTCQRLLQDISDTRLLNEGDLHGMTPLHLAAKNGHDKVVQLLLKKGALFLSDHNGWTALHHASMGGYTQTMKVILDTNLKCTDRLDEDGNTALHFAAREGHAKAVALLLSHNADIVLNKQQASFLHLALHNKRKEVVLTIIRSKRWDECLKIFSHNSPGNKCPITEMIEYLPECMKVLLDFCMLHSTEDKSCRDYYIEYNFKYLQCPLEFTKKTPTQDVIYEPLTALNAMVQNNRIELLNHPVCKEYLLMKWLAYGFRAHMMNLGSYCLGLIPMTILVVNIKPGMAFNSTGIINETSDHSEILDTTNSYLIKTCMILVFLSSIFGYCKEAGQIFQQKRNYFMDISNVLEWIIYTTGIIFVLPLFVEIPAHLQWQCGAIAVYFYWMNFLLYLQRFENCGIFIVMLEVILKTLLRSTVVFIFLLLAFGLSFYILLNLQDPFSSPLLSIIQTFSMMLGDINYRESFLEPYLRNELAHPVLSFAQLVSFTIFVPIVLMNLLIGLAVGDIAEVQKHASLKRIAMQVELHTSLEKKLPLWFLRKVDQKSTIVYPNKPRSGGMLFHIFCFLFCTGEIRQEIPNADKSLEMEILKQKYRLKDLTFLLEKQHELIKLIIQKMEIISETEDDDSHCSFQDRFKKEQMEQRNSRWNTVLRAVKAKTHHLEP
# Sequence of human TRPV1 (Q8NER1 whole entry): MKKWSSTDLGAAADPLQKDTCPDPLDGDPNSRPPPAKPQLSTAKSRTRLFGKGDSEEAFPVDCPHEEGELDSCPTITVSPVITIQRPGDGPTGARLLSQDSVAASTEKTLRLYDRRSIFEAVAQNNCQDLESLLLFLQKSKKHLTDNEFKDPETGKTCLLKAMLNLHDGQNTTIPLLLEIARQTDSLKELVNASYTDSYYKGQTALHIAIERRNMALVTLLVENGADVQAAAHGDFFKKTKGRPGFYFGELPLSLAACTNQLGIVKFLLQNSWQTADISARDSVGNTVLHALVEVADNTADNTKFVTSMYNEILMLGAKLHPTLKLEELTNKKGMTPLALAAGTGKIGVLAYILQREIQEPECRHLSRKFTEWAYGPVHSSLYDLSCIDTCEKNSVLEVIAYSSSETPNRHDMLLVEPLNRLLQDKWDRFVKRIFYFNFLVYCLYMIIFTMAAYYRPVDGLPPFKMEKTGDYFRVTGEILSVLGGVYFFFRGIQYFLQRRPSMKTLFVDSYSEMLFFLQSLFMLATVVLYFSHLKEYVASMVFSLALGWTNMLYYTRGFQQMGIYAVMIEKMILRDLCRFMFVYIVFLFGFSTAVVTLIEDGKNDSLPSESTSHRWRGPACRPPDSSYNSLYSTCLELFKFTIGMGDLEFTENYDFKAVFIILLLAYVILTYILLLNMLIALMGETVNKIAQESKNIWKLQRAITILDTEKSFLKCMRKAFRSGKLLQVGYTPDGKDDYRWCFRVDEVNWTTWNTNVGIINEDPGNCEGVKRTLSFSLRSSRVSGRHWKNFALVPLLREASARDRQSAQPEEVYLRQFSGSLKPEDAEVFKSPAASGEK
Structure (SMILES),IC50 (TRPM8; [1]),inhibition at 0.1 µM (human TRPV1; [2]),inhibition at 1 µM (human TRPV1; [2]),hTRPV1 % Activation (n = 3) (human TRPV1; [3]),hTRPV1 % Activation (n = 3) (human TRPV1; [4]),inhibition at 0.1 µM (human TRPA1; [5]),inhibition at 1 µM (human TRPA1; [5]),hTRPA1 % Activation (n = 3-5) (human TRPA1; [6]),hTRPA1 % Activation (n = 3-5) (human TRPA1; [7]),IC50 (TRPM8),other results
"CC(C)[C@@H]1CC[C@@H](C)C[C@H]1NC(=O)c1ccc(-c2ccccc2)cc1 [Compound 1, reference compound]",,,,,,,,,,16000 ± 1000 nM,
"O=C(NC1CCCCC1)c1ccc(-c2ccccc2)cc1 [Compound 3, N-cyclohexyl-[1,1′-biphenyl]-4-carboxamide]",49000 ± 1000 nM,,,,,,,,,,
"O=C(NC1CCCc2ccccc21)c1ccc(-c2ccccc2)cc1 (stereo not drawn) [Compound 9, N-(1,2,3,4-tetrahydronaphthalen-1-yl)-[1,1′-biphenyl]-4-carboxamide]",,,,,,,,,,55000 ± 1000 nM,loss of potency vs. Compound 8 (TRPM8; icilin Ca2+ assay): 3 fold
"O=C(NC1CCc2ccccc2C1)c1ccc(-c2ccccc2)cc1 (stereo not drawn) [Compound 11, N-(1,2,3,4-tetrahydronaphthalen-2-yl)-[1,1′-biphenyl]-4-carboxamide]",,,,−1.8 ± 0.9%,−0.7 ± 1.5%,,,−0.1 ± 0.5%,−0.8 ± 0.6%,52 ± 1 nM,inhibition at 0.1 µM (human TRPV1; [8]): -3.1 ± 0.6%; inhibition at 1 µM (human TRPV1; [8]): 13 ± 3%; inhibition at 0.1 µM (human TRPA1; [9]): 3 ± 6%; inhibition at 1 µM (human TRPA1; [9]): 4 ± 1%; decrease of hTRPM8 potency (vs. Compound 10) (TRPM8; icilin Ca2+ assay): 9 fold

# Further lines, with some results ahead:
IC50 (TRPM8; [1]),inhibition at 0.1 µM (human TRPV1; [2]),inhibition at 1 µM (human TRPV1; [2]),hTRPV1 % Activation (n = 3) (human TRPV1; [3]),hTRPV1 % Activation (n = 3) (human TRPV1; [4]),inhibition at 0.1 µM (human TRPA1; [5]),inhibition at 1 µM (human TRPA1; [5]),hTRPA1 % Activation (n = 3-5) (human TRPA1; [6]),hTRPA1 % Activation (n = 3-5) (human TRPA1; [7]),Structure (SMILES),IC50 (TRPM8),other results
52 ± 1 nM,-3 ± 4%,24 ± 1%,0.0 ± 1.0%,0.6 ± 1.5%,-2 ± 5%,4 ± 5%,0.1 ± 0.7%,0.8 ± 0.5%,"O=C(NC1CCCCCC1)c1ccc(-c2ccccc2)cc1 [Compound 5, N-cycloheptyl-[1,1′-biphenyl]-4-carboxamide]",,
692 ± 1 nM,,,,,,,,,"O=C(NC1CC2CCC(C2)C1)c1ccc(-c2ccccc2)cc1 (stereo not drawn) [Compound 6, N-(bicyclo[3.2.1]octan-3-yl)-[1,1′-biphenyl]-4-carboxamide]",,
62 ± 1 nM,-4 ± 4%,14 ± 4%,−1.9 ± 0.7%,−3.2 ± 0.6%,-13 ± 4%,0.2 ± 6%,−1.0 ± 0.1%,−1.5 ± 0.9%,"O=C(NC1CCCCCCC1)c1ccc(-c2ccccc2)cc1 [Compound 7, N-cyclooctyl-[1,1′-biphenyl]-4-carboxamide]",,
40 ± 1 nM,-3 ± 4%,5 ± 2%,−1.0 ± 0.4%,0.7 ± 0.2%,-1 ± 5%,-7 ± 9%,0.2 ± 0.5%,−0.2 ± 1.1%,"O=C(NC1CCC2(CCCCC2)CC1)c1ccc(-c2ccccc2)cc1 [Compound 13, N-(spiro[5.5]undecan-3-yl)-[1,1′-biphenyl]-4-carboxamide]",,effect on hTRPV1-mediated responses (intrinsic and antagonist activity) (human TRPV1; [10]): do not affect; effect on hTRPA1-mediated responses (intrinsic and antagonist activity) (human TRPA1; [10]): do not affect
16 ± 1 nM,,,,,,,,,"O=C(NC12CC3CC(CC(C3)C1)C2)c1ccc(-c2ccccc2)cc1 [Compound 15, N-(adamantan-1-yl)-[1,1′-biphenyl]-4-carboxamide]",,inhibition at 0.03 µM (human TRPV1; [2]): -6 ± 5%; inhibition at 0.3 µM (human TRPV1; [2]): 3 ± 4%; effect on hTRPV1-mediated responses (intrinsic and antagonist activity) (human TRPV1; [10]): do not affect; hTRPV1 % Activation (n = 3) (human TRPV1; tested at 30 nM; normalized to Emax of capsaicin (3 μM)): 1.0 ± 0.2%; hTRPV1 % Activation (n = 3) (human TRPV1; tested at 300 nM; normalized to Emax of capsaicin (3 μM)): 1 ± 2%; inhibition at 0.3 µM (human TRPA1; [5]): -7 ± 7%; effect on hTRPA1-mediated responses (intrinsic and antagonist activity) (human TRPA1; [10]): do not affect; hTRPA1 % Activation (n = 3-5) (human TRPA1; tested at 30 nM; normalized to Emax of AITC (300 μM)): −2.6 ± 0.5%; hTRPA1 % Activation (n = 3-5) (human TRPA1; tested at 300 nM; normalized to Emax of AITC (300 μM)): −1.5 ± 0.4%
